These results are taken from patent US9732088B2, “C2-carbocyclic iminothiazine dioxides as BACE inhibitors, compositions, and their use” (Merck Sharp & Dohme Corp., priority 2014, dated 2017).

Broadly, the Ki is a dissociation constant, usually derived from enzyme kinetics or from competition with a known ligand. By IC50 is commonly meant the concentration needed to halve the response being measured. A high value points to a need for much substance.

Test [1] deals with soluble human BACE-1 catalytic domain (Homo sapiens (Human), UniProt P56817). Nature of the test: BACE-1 Ki Assay (BACE-1 HTRF FRET Assay). The following applies: Assay 1; Ki calculated from IC50 by Cheng-Prusoff. In kind it is biochemical. As for the experimental part:
Assay 1: BACE-1 Ki Assay (BACE-1 HTRF FRET Assay)
The compounds of the invention were determined to be potent inhibitors of BACE-1 using the following assay.
The following reagents were used in this assay. Na^+-Acetate pH 5.0; 1% Brij-35; Glycerol; Dimethyl Sulfoxide (DMSO); Recombinant human soluble BACE-1 catalytic domain (>95% pure); APP Swedish mutant peptide substrate (QSY7-APP^swe-Eu): QSY7-[…]-Europium-amide.
A homogeneous time-resolved FRET assay can be used to determine IC50 values for inhibitors of the soluble human BACE-1 catalytic domain. This assay monitors the increase of 620 nm fluorescence that resulted from BACE-1 cleavage of an APPswedish APP^swe mutant peptide FRET substrate (QSY7-[…]-Europium-amide). This substrate contains an N-terminal QSY7 moiety that serves as a quencher of the C-terminal Europium fluorophore (620 nm Em). In the absence of enzyme activity, 620 nm fluorescence is low in the assay and increased linearly over 3 hours in the presence of uninhibited BACE-1 enzyme. Inhibition of BACE-1 cleavage of the QSY7-APP^swe-Eu substrate by inhibitors is manifested as a suppression of 620 nm fluorescence.
Varying concentrations of inhibitors at 3× the final desired concentration in a volume of […] are preincubated with purified human BACE-1 catalytic domain (3 nM in 10 μl) for 30 minutes at 30° C. in reaction buffer containing 20 mM Na-Acetate pH 5.0, 10% glycerol, 0.1% Brij-35 and 7.5% DSMO. Reactions are initiated by addition of 10 μl of 600 nM QSY7-APP^swe-Eu substrate (200 nM final) to give a final reaction volume of 30 μl in a 384 well Nunc HTRF plate. The reactions are incubated at 30° C. for 1.5 hours. The 620 nm fluorescence is then read on a Rubystar HTRF plate reader (BMG Labtechnologies) using a […] delay followed by a 400 millisecond acquisition time window. Inhibitor IC50 values are derived from non-linear regression analysis of concentration response curves. Ki values are then calculated from IC50 values using the Cheng-Prusoff equation using a previously determined […] of 8 μM for the QSY7-APP^swe-Eu substrate at BACE-1. The example compounds of the invention were measured in this assay.

Another test has as its target BACE-1 (Homo sapiens (Human), UniProt P56817). As to the kind of experiment: BACE-1 Cellular Assay (Aβ in HEK293-APPswe/lon cells). In kind it is cell-based. Conditions: 4 hours. As for the experimental part: Assay 3: BACE-1 Cellular Assay
Certain compounds of the invention, identified in the tables herein, were determined to be potent inhibitors of BACE-1 in the following cellular assay. HEK293 cells are obtained from the American Type Culture Collection (ATCC) and stably transfected with the human amyloid precursor protein cDNA containing the FAD Swedish (enhances β-secretase processing) and London (enhances Aβ42 cleavage) mutations. A HEK293 stable clone with Aβ expression (HEK293-APP^swe/lon) is identified and maintained at 37° C., 5% CO2 in the ATCC-recommended growth media supplemented with hygromycin. […] Aβ40 or Aβ42 are measured in 15 μl of media using a mesoscale based ELISA assay. Full length Aβ40 and Aβ42 peptides are captured with the N-terminal specific biotinylated-WO2 monoclonal antibody and detected using either the ruthenylated Aβ40 C-terminal specific monoclonal antibody, G2-10 or the ruthenylated Aβ42 C-terminal specific monoclonal antibody G2-11 respectively. Raw electrochemiluminescnce values are measured using a Mesoscale Sector Imager plate reader and are plotted as a function of compound concentration. IC50 values are interpolated from the data using nonlinear regression analysis (Sigmoidal dose response fit with variable slope) of the data using GraphPad Prism software.

Test [2] deals with purified human Cathepsin-D (Homo sapiens (Human), UniProt P07339). As to the kind of experiment: Cathepsin-D Assay (time-resolved FRET).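 Note: Europium-labelled peptide substrate with QSY7 quencher, cleavage read as 620 nm fluorescence after 30 min preincubation then 30 min reaction at 30 °C, pH 5.0, inhibition lowers signal.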 Format: biochemical. Conditions: Assay 4; Ki calculated from IC50 by Cheng-Prusoff.
Description: Assay 4: Cathepsin-D Assay
This substrate contains an C-terminal QSY7 moiety that serves as a quencher of the N-terminal Europium fluorophore (620 nm Em). In the absence of enzyme activity, 620 nm fluorescence is low in the assay and increased linearly over 1 hour in the presence of uninhibited Cathepsin-D enzyme. Inhibition of Cathespin D cleavage of the Eu-Aspartyl Protease-QSY7 substrate by inhibitors is manifested as a suppression of 620 nm fluorescence.
Varying concentrations of inhibitors in a volume of 100 nl are preincubated with purified human Cathepsin-D (0.1 nM in 10 μl) for 30 minutes at 30° C. in reaction buffer containing 100 mM Na-Acetate pH 5.0, and 0.02% Brij-35. Reactions are initiated by addition of 10 μl of 100 nM Eu-Aspartyl Protease-QSY7 substrate (50 nM final) to give a final reaction volume of 20 μl in a 384 well Nunc HTRF plate. The reactions are incubated at 30° C. for 30 minutes. The 620 nm fluorescence is then read on a Envision Multilabel plate reader (Perkin-Elmer) using a 200 microsecond delay followed by a 400 microsecond acquisition time window. Inhibitor IC50 values are derived from non-linear regression analysis of concentration response curves.
Test [3] addresses purified human autoBACE-2 (Homo sapiens (Human), UniProt Q9Y5Z0). As to the kind of experiment: BACE-2 Assay (BACE-HTRF assay). Format: biochemical. The following applies: Assay 2; Ki calculated from IC50 by Cheng-Prusoff; read-out: BACE2 Ki. How it is done:
The compounds of the invention were determined to be potent inhibitors of BACE-2 using the following assay. Inhibitor IC50s at purified human autoBACE-2 are determined in a time-resolved endpoint proteolysis assay that measures hydrolysis of the QSY7-[…]-Eu-amide FRET peptide substrate (BACE-HTRF assay). BACE-mediated hydrolysis of this peptide results in an increase in relative fluorescence (RFU) at 620 nm after excitation with 320 nm light Inhibitor compounds, prepared at 3× the desired final concentration in 1×BACE assay buffer (20 mM sodium acetate pH 5.0, 10% glycerol, 0.1% Brij-35) supplemented with 7.5% DMSO are pre-incubated with an equal volume of autoBACE-2 enzyme diluted in 1×BACE assay buffer (final enzyme concentration 1 nM) in black 384-well NUNC plates for 30 minutes at 30° C. […] DMSO is present at […] final concentration in the assay. Following laser excitation of sample wells at 320 nm, the fluorescence signal at 620 nm is collected for 400 ms following a 50 μs delay on a RUBYstar HTRF plate reader (BMG Labtechnologies). Raw RFU data is normalized to maximum (1.0 nM BACE/DMSO) and minimum (no enzyme/DMSO) RFU values. IC50 values are determined by nonlinear regression analysis (sigmoidal dose response, variable slope) of percent inhibition data with minimum and maximum values set to 0 and 100 percent respectively. Similar IC50s are obtained when using raw RFU data. The Ki values are calculated from the IC50 using the Cheng-Prusoff equation.

Chain of soluble human BACE-1 catalytic domain (P56817 75-416): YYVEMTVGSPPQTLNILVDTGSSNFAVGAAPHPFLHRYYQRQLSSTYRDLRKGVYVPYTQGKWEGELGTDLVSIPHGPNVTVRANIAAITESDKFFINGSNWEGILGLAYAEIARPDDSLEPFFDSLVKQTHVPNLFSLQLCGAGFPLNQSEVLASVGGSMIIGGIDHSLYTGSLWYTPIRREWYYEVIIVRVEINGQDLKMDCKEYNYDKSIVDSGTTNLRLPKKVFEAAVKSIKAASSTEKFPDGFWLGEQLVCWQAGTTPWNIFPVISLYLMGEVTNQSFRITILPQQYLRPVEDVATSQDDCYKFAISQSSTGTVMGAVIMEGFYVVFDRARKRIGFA
Chain of purified human Cathepsin-D (P07339 65-412): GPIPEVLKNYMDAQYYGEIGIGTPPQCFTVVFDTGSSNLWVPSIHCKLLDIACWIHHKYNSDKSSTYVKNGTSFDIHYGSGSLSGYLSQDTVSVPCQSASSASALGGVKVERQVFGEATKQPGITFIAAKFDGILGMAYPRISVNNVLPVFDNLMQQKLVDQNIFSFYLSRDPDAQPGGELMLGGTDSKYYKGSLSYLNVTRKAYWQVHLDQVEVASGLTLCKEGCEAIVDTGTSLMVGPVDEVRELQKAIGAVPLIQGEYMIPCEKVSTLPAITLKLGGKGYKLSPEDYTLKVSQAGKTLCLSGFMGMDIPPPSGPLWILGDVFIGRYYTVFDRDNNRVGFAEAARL
Chain of purified human autoBACE-2 (Q9Y5Z0 63-466): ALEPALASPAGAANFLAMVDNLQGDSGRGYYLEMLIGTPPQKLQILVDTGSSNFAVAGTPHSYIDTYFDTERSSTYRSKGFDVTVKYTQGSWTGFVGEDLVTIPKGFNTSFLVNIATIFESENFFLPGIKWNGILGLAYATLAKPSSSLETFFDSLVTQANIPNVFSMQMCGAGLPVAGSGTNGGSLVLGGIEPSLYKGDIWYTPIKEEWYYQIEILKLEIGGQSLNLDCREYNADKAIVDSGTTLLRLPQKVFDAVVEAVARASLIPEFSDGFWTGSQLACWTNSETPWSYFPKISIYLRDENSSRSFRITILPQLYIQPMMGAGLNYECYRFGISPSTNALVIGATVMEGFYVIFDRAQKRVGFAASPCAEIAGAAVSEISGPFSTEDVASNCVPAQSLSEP
Chain of BACE-1 (P56817 46-501): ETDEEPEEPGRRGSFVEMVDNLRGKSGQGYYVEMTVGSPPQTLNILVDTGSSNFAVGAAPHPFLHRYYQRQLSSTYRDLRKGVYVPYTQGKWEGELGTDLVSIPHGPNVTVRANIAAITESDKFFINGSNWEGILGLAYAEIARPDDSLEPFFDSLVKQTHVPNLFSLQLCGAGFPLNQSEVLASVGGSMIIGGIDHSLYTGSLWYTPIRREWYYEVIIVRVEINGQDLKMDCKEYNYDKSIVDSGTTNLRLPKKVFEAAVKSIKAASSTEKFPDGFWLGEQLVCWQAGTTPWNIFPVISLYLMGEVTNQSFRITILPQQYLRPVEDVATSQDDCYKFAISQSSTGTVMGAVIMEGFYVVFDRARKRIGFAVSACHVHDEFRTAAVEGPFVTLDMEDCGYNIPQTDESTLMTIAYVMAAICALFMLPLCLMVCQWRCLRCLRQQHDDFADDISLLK

Take `COc1cnc2c(Nc3cc([C@]4(C)CS(=O)(=O)[C@@](C)(C5CC5)C(N)=N4)c(F)cn3)nccc2n1` [Example 9, N-{4-[(3R,6S)-6-cyclopropyl-5-imino-3,6-dimethyl-1,1-dioxidothiomorpholin-3-yl]-5-fluoropyridin-2-yl}-2-methoxypyrido[3,4-b]pyrazin-5-amine]: the Ki in test [1] was 13.6 nM; in test [2], above 9400 nM; in test [3] it was 1.3 nM. At BACE-1, this compound gave an IC50 of 111 nM.

For the compound `CC#CCOc1cnc2c(Nc3cc([C@]4(C)CS(=O)(=O)[C@@](C)(C5CC5)C(N)=N4)c(F)cn3)nccc2c1` [Example 10, 3-(but-2-yn-1-yloxy)-N-{4-[(3R,6S)-6-cyclopropyl-5-imino-3,6-dimethyl-1,1-dioxidothiomorpholin-3-yl]-5-fluoropyridin-2-yl}-1,7-naphthyridin-8-amine], the values for the Ki in test [1], in test [2] and in test [3] were 0.79 nM, above 9400 nM and 0.64 nM, respectively. This compound registered an IC50 against BACE-1 of 0.25 nM.

As for `CC#CCOc1cnc2c(Nc3cnc(F)c([C@]4(C)CS(=O)(=O)[C@@](CF)(C5CC5)C(N)=N4)c3)nccc2c1` [Example 11, 3-(but-2-yn-1-yloxy)-N-{5-[(3R,6S)-6-cyclopropyl-6-(fluoromethyl)-5-imino-3-methyl-1,1-dioxidothiomorpholin-3-yl]-6-fluoropyridin-3-yl}-1,7-naphthyridin-8-amine], the inhibition constant (Ki) in test [1] was 0.91 nM; in test [2], 857 nM; in test [3] it was 7.5 nM. Also, at BACE-1, half-maximal inhibition (IC50) required 4.1 nM.

Take `COc1cnc2c(Nc3cnc(F)c([C@]4(C)CS(=O)(=O)[C@@](CF)(C5CC5)C(N)=N4)c3)nccc2c1` [Example 12, N-{5-[(3R,6S)-6-cyclopropyl-6-(fluoromethyl)-5-imino-3-methyl-1,1-dioxidothiomorpholin-3-yl]-6-fluoropyridin-3-yl}-3-methoxy-1,7-naphthyridin-8-amine]: the figures for the Ki in test [1], in test [2] and in test [3] were 6.1 nM, 629 nM and 3.3 nM, respectively. The compound also yielded a concentration for half-maximal inhibition (IC50) against BACE-1 of 99 nM.

On to `CC#CCOc1cnc2c(Nc3cnc(F)c([C@]4(C)CS(=O)(=O)[C@@](CF)(C5CC5)C(N)=N4)c3)nccc2n1` [Example 13, 2-(but-2-yn-1-yloxy)-N-{5-[(3R,6S)-6-cyclopropyl-6-(fluoromethyl)-5-imino-3-methyl-1,1-dioxidothiomorpholin-3-yl]-6-fluoropyridin-3-yl}pyrido[3,4-b]pyrazin-5-amine], for which the Ki was 0.65 nM in test [1], 3380 nM in test [2] and 1.1 nM in test [3]. The compound also displayed an IC50 on BACE-1 of 6.6 nM.

`C[C@@]1(c2cc(Nc3ncnc4cc(Br)cnc34)ccc2F)CS(=O)(=O)[C@@](C)(C2CC2)C(N)=N1` [Example 15, 7-bromo-N-{3-[(3R,6S)-6-cyclopropyl-5-imino-3,6-dimethyl-1,1-dioxidothiomorpholin-3-yl]-4-fluorophenyl}pyrido[3,2-d]pyrimidin-4-amine]: the Ki in test [1] was 1.8 nM; in test [2], 321 nM; in test [3], 0.73 nM. The compound further came in with an IC50 against BACE-1 of 3.4 nM.

For `C[C@@]1(c2cc(Nc3nccc4cc(Br)cnc34)ccc2F)CS(=O)(=O)[C@@](C)(C2CC2)C(N)=N1` [Example 17, 3-bromo-N-{3-[(3R,6S)-6-cyclopropyl-5-imino-3,6-dimethyl-1,1-dioxidothiomorpholin-3-yl]-4-fluorophenyl}-1,7-naphthyridin-8-amine], the values for the Ki in test [1], in test [2] and in test [3] were 1.4 nM, 146 nM and 0.41 nM, respectively. In addition, the IC50 against BACE-1 stood at 16 nM.

Turning to `COc1cnc2c(Nc3cc([C@]4(C)CS(=O)(=O)[C@@](C)(C5CC5)C(N)=N4)c(F)cn3)ncnc2c1` [Example 19, N-{4-[(3R,6S)-6-cyclopropyl-5-imino-3,6-dimethyl-1,1-dioxidothiomorpholin-3-yl]-5-fluoropyridin-2-yl}-7-methoxypyrido[3,2-d]pyrimidin-4-amine], the Ki in test [1] was 67 nM; in test [2] it was 9300 nM; in test [3], 21 nM. In addition, half-maximal inhibition against BACE-1 (IC50) was put at 192 nM.

Turning to `COc1cnc2c(Nc3ccc(F)c([C@]4(C)CS(=O)(=O)[C@@](C)(C5CC5)C(N)=N4)c3)ncnc2c1` [Example 20, (2S,5R)-2-cyclopropyl-5-(2-fluoro-5-((7-methoxypyrido[3,2-d]pyrimidin-4-yl)amino)phenyl)-3-imino-2,5-dimethylthiomorpholine 1,1-dioxide], the Ki in test [1] is 3.7 nM; in test [2], 2160 nM; in test [3] it was 2.4 nM. Further, the IC50 against BACE-1 was found to be 5.3 nM.

For the compound `C[C@@]1(c2cc(Nc3nccc4cc(O)cnc34)ncc2F)CS(=O)(=O)[C@@](C)(C2CC2)C(N)=N1` [Example 25, (3R,6S)-5-amino-6-cyclopropyl-3-(5-fluoro-2-((3-hydroxy-1,7-naphthyridin-8-yl)amino)pyridin-4-yl)-3,6-dimethyl-3,6-dihydro-2H-1,4-thiazine 1,1-dioxide], the Ki is 0.89 nM in test [1], above 9400 nM in test [2] and 0.59 nM in test [3]. The compound also displayed an IC50 against BACE-1 of 4.9 nM.

Take `C[C@@]1(c2cc(Nc3nccc4cc(Cl)cnc34)ncc2F)CS(=O)(=O)[C@@](C)(C2CC2)C(N)=N1` [Example 27, (3R,6S)-5-amino-3-(2-((3-chloro-1,7-naphthyridin-8-yl)amino)-5-fluoropyridin-4-yl)-6-cyclopropyl-3,6-dimethyl-3,6-dihydro-2H-1,4-thiazine 1,1-dioxide]: the values for the Ki in test [1], in test [2] and in test [3] were 10 nM, above 9400 nM and 2.9 nM, respectively. The compound further registered an IC50 against BACE-1 of 180 nM.

Consider `COc1cnc2c(Nc3cnc(F)c([C@]4(C)CS(=O)(=O)[C@@](C)(C5CC5)C(N)=N4)c3)nccc2c1` [Example 32, (3R,6S)-5-amino-6-cyclopropyl-3-(2-fluoro-5-((3-methoxy-1,7-naphthyridin-8-yl)amino)pyridin-3-yl)-3,6-dimethyl-3,6-dihydro-2H-1,4-thiazine 1,1-dioxide], for which the Ki in test [1] is 6.9 nM; in test [2] it was 650 nM; in test [3] it was 2.6 nM. On BACE-1, this compound had an IC50 of 24 nM.

Turning to `C[C@@]1(c2cc(Nc3ccnc4cc(Cl)cnc34)ncc2F)CS(=O)(=O)[C@@](C)(C2CC2)C(N)=N1` [Example 33, (3R,6S)-5-amino-3-(2-((7-chloro-1,5-naphthyridin-4-yl)amino)-5-fluoropyridin-4-yl)-6-cyclopropyl-3,6-dimethyl-3,6-dihydro-2H-1,4-thiazine 1,1-dioxide], the values for the Ki in test [1], in test [2] and in test [3] were 6.2 nM, 820 nM and 0.82 nM, respectively. The compound also gave an IC50 at BACE-1 of 27 nM.
